The experiment concerns the target T1, human FPTase (Homo sapiens, UniProt P49354+P49356).
T1 construct: made in house
Put plainly: In vitro inhibition of Ras farnesyl transferase (human FPTase). Format: biochemical. The note with it: [3H]-FPP incorporation, 100 nM Ras-CVIM, 30 min; read-out: IC50 against human FPTase.

The structures appear in SMILES notation. Where a name gives a salt, the structure may show the parent alone.

As usually defined, the IC50 is the concentration needed to halve the response being measured. For `N#Cc1ccc(Cn2cncc2CCC(=O)Nc2cccc(Cl)c2)cc1` [Example 1, N-(3-chlorophenyl)-3-[1-(4-cyanobenzyl)-5-imidazolyl]propionamide hydrochloride], the IC50 is less than 10 µM.
